SMILES strings stand for the structures.

The test deals with T1, Ceramide transfer protein (Homo sapiens) (UniProt Q9Y5P4).
T1 sequence (whole entry): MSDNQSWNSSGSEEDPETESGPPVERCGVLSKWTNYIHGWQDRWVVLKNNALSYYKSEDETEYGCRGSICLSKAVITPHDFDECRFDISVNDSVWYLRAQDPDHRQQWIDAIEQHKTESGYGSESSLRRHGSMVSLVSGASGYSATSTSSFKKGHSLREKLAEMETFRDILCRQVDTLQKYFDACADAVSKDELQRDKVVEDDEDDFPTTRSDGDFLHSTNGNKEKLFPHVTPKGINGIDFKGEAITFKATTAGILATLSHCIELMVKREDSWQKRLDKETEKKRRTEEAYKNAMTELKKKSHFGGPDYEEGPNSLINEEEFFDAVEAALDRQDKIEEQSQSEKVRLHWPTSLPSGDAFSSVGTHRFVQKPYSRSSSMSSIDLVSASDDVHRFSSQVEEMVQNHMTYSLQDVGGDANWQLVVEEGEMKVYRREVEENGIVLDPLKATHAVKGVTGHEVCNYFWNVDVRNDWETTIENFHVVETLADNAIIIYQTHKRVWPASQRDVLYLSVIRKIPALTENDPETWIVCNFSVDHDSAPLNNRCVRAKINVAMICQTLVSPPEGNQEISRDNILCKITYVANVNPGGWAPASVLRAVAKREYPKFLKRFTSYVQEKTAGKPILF
Description: Inhibition of fluorescent ceramide probe binding to recombinant His-tagged START domain of CERT (unknown origin) assessed as bound fluorescent ceramide probe level at 200 pmol preincubated for 30 mins followed by ceramide probe addition after 30 mins by FLINT assay (reference value: 28.4 +/- 2.75%). The arrangement: scale not given: the % may be the effect or the level left.
On to `CCCCCCCCCCCC(=O)N[C@@H](CO)C[C@H](O)c1ccccc1`, for which the Activity was determined as 25.5%.
Next, `CCCCCCCCCCCCO[C@@H]1CNC[C@@H](O)[C@@H]1O`: 61.3%; `O[C@H]1[C@H](O)CNC[C@@H]1O`: 36.6%; `CCCCCCCCCCCCO[C@@H]1CN(CCCCCCCCCCCC)C[C@@H](O)[C@@H]1O`: 54.3%.
For `CCCCCCCCCCCCN1C[C@@H](O)[C@H](O)[C@@H](O)C1`, the Activity came out at 48%.
For the molecule `CCCCCCCCCCCCO[C@H]1CNC[C@@H](O)[C@@H]1O`, the Activity is 41%.
The same measure for `CCCCCCCCCCCCO[C@H]1CN(CCCCCCCCCCCC)C[C@@H](O)[C@@H]1O`: 30.1%; for `CCCCCCCCCCCCO[C@H]1CNC[C@@H](OCCCCCCCCCCCC)[C@@H]1O`: 51.1%.

These data come from ChEMBL document CHEMBL3994663, “Iminosugar-based ceramide mimicry for the design of new CERT START domain ligands” (Bioorg Med Chem, 2017).
